Test [1] relates to Escherichia coli MG1655 ancestor and MICALE-grown samples. The test is described as follows: Chaotropic stress adaptation analysis (OD600 growth in increasing MgCl2). The class given is cell-based. As to the method:
(§1) The adaptation analysis (step 205) is a qualitative test to compare the ability to grow in the presence of the stressor between the ancestor and MICALE-grown samples. Turbid broth cultures from isolated colonies were diluted 1:100 in sterile broth with increasing amounts of stressor. These dilutions were vortexed before pipetting 0.2 mL in triplicate onto a 96-well plate. The microplate reader then measured OD600 every 15 minutes over the span of four days while incubating the plate at 37° C. with the plate lid on. […] Referring to FIG. 3B, for each OD600 curve, the maximum rate of growth over a span of 75 minutes is designated the exponential growth rate, u, and the subtracted difference between the maximum and minimum OD600 measurements, AOD, is designated the cell proliferation. The high salinity and chaotropic stress adaptation analyses were completed once whereas the antibiotic analysis was repeated for two total trials. Growth metrics were extrapolated from the growth curves (described below) for numerical comparisons between samples and to fit a logistic dose-response curve of each sample's response in a stressor. For each sample, a logistic curve was fit to the triplicate relative exponential growth rate or relative cell proliferation values across all media types (FIG. 3C). This curve represents a sample's relative response to increasing doses of a stressor, known as a dose-response curve. The value for ED50 is the effective dose of the stressor at which a 50% decrease in the maximal response (100%) is observed.
For the chaotropic stress run, samples from both two weeks and four weeks into the run were selected for analysis (Table 5, below). The samples, including the ancestor, were cultured in media with 0, 200, and 250 mM MgCl2. The IL samples were not plated on 200 mM MgCl2 plates due to limited resources. The ancestor was grown on plates with the same MgCl2 concentration as the samples to see if the culturing process was causing genetic change significant enough to affect the growth phenotypes observed during the adaptation analysis. Cultures were diluted into media with 0, 200, 250 and 300 mM MgCl2 then pipetted onto the 96-well-plate to start the four-day analysis.
(§2) To statistically compare growth between samples, two parameters were extracted from the OD600 curves resulting from the adaptation analysis: relative exponential growth rate and relative cell proliferation (FIG. 3B). To find the exponential growth rate, μ, growth curves are normally fit to a standard sigmoidal function, such as the Gompertz model. However, these OD600 curves were too irregular to be well fit with a standard function. Instead, a rolling regression was fitted onto natural log transformed OD600 curves to produce linear regression lines between six measurements at a time (75 total minutes), shifting by 1 measurement, over the curve. The exponential growth rate from the maximum slope obtained by the rolling regression is 0.44 hr^−1. The darker lines on the upper right section of the curve represent where the maximum slope occurs. (FIG. 4).
(§3) The exponential growth rate was determined to be the maximum slope of any of the regression lines, denoted by μstress for growth curves in media with stressor and μblank for that in blank LB media [Equation 1]. Any slope maxima that appeared to be due from anomalies in the data, such as a quick jump in OD600 after biofilm formation, were filtered out. This ensured that the maximum slope occurred during the time that visually represented exponential growth (near the start of the curve). The triplicate μblank calculations were averaged to obtain the values representing that sample's growth in media without stress, μcontrol [Equation 2]. The percent relative exponential growth rate was obtained by dividing each μ by the μcontrol, then multiplying by 100 [Equation 3]. Finally, the three relative exponential growth rate values for each sample and media type were averaged [Equation 4]. […]

Another test deals with Escherichia coli. The note with it: cited from earlier work.
The subject of test [2] is Escherichia coli MG1655 ancestor and MICALE-grown samples. In words: Antibiotic stress adaptation analysis (OD600 growth in increasing ciprofloxacin). The conditions noted are these: for relative cell proliferation / relative exponential growth rate: 10×MIC. The class given is cell-based. On the procedure:
as §1
The samples chosen for the antibiotic-stress adaptation analysis were from the end of the antibiotic stress MICALE run, sampled on the 14th day (Table 7, below). Samples were cultured grown in media with no antibiotic, 0.6 μg/mL ciprofloxacin (10×MIC,) and 15 μg/mL ciprofloxacin ([…]) were transferred into 5 mL of LB broth with the same amount of antibiotic. The only exception is the BL sample was grown in 0.6 μg/mL ciprofloxacin then transferred to LB broth with 15 μg/mL ciprofloxacin. Once turbid, the broth cultures were diluted into media with no antibiotic, 0.6 μg/mL, 6 μg/mL, and 60 μg/mL ciprofloxacin then pipetted onto a 96-well plate and placed in the microplate reader to start the analysis. A portion of the broth cultures used for the analysis were frozen in glycerol. For a repeat trial of the adaptation analysis, these frozen stocks were revived in broth media matching the level of antibiotic in which they had originally been cultured.
as §2
The exponential growth rate was determined to be the maximum slope of any of the regression lines, denoted by μstress for growth curves in media with stressor and μblank for that in blank LB media [Equation 1]. Any slope maxima that appeared to be due from anomalies in the data, such as a quick jump in OD600 after biofilm formation, were filtered out. This ensured that the maximum slope occurred during the time that visually represented exponential growth (near the start of the curve). […]

Test [3] shares this test system. The test is described as follows: High salinity adaptation analysis (OD600 growth in increasing NaCl). The class given is cell-based. On the procedure:
as §1
The samples chosen from the high salinity run were frozen stocks of the PL, SL, and BL samples that had been taken at the end of the run (two weeks) and one SL sample from the first 25 hours (Table 2, below). The samples used in the adaptation analysis had been in media with a NaCl concentration of 60 ppt, and the ancestor was cultured on blank LB media. The samples were diluted into LB media with 5, 45, 60, 75, and 90 ppt NaCl then plated on the 96-well plate.
as §2, §3

Where [4] appears, read: sample PL-000-Col1, 200 mM MgCl2.

Here are results for 3 molecules from patent US20250346883A1, “DENSITY GRADIENT CHEMOSTAT FOR ADAPTED LABORATORY EVOLUTION” (priority 2022, published 2025).

SMILES strings stand for the structures. ≈ marks a conversion by molar mass, not a printed value. Where “and” joins values, the source holds several entries; their conditions need not be identical. Identical values can stand only once.

For the molecule `[Cl-].[Cl-].[Mg+2]` [MgCl2, magnesium chloride], the “growth in 300 mM MgCl2” value in test [1] (all samples incl. ancestor, 300 mM MgCl2) is on record as “No samples showed signs of growth”. Further, the “average exponential growth rate (relative)” value in test [1] (sample Anc-000, 200 mM MgCl2) is recorded as 41.7%; in test [1] (sample Anc-200, 200 mM MgCl2), 32.0%; in test [1] (sample IL-000, 200 mM MgCl2), 33.5%; in test [1] (setting [4]), 54.0%; in test [1] (sample PL-200, 200 mM MgCl2), 26.5%; in test [1] (sample SL-W2, 200 mM MgCl2), 22.2%. In addition, the “average exponential growth rate (relative)” value in test [1] (sample SL-W4, 200 mM MgCl2) was 42.3%. Moreover, the relative cell proliferation in test [1] (sample Anc-000, 200 mM MgCl2) is 74.0%; in test [1] (sample Anc-200, 200 mM MgCl2) it was 94.0%; in test [1] (sample IL-000, 200 mM MgCl2), 86.5%; in test [1] (setting [4]), 130% and 130.3%; in test [1] (sample PL-000-Col2, 200 mM MgCl2 (considered as no growth)), “less than 5%”; in test [1] (sample PL-200, 200 mM MgCl2) it was 129.3%. Further, the relative cell proliferation in test [1] (sample SL-W2, 200 mM MgCl2) is reported as 140.8%; in test [1] (sample SL-W4, 200 mM MgCl2), 102.2%. In addition, the “growth in 250 mM MgCl2” value in test [1] (sample Anc-000, 250 mM MgCl2) was “showed signs of growth”; in test [1] (sample PL-000-Col1, 250 mM MgCl2 (one well)) it was “showed signs of growth”. Moreover, in test [1] (sample PL-000-Col1, one triplicate well, 200 mM MgCl2), the “maximum OD600” value is listed as 1.479. The “growth in media with MgCl2” value in test [1] (sample PL-000-Col2, any media with MgCl2) is listed as “could not grow”. Besides, in test [1] (sample SL-W2, 200 mM MgCl2), the “highest average OD600” value worked out at 1.399.

With `O=C(O)c1cn(C2CC2)c2cc(N3CCNCC3)c(F)cc2c1=O` [ciprofloxacin], the “MIC, literature's value” in the test with Escherichia coli was 0.05 mg/L (≈ 0.151 µM). In addition, in test [2] (Ancestor, any media with ciprofloxacin (10-1000×MIC), both trials), the “growth in media with ciprofloxacin” value was “did not show signs of growth”. Also, the “concentration at which cell proliferation value of less than 5% was reached (no growth)” value is reported as 10 ×MIC in test [2] (Trial 1, Ancestor); 1000 ×MIC in test [2] (Trial 1, sample BL-15); 100 ×MIC in test [2] (Trial 1, sample IL-00); 1000 ×MIC in test [2] (Trial 1, sample IL-15-Col1); 1000 ×MIC in test [2] (Trial 1, sample IL-15-Col2); 10 ×MIC in test [2] (Trial 1, sample PL-00). The “concentration at which cell proliferation value of less than 5% was reached (no growth)” value in test [2] (Trial 1, sample PL-0.6) is reported as 100 ×MIC. Further, the average cell proliferation in test [2] (Trial 1, sample IL-00, 100×MIC) was 0.6%; in test [2] (Trial 1, sample IL-00, 1000×MIC (likely evaporation, not growth)) it was 5.3%; in test [2] (Trial 2, samples IL-15-Col1, SL-15 and BL-15, 1000×MIC (growth in all levels tested)) it was “above 5%”. The relative growth rate came out at 54.4% in test [2] (Trial 1, sample IL-15-Col1, 100×MIC) and 66.6% in test [2] (Trial 2, sample BL-15, 100×MIC). For the same molecule, the relative cell proliferation in test [2] (Trial 1, sample IL-15-Col2) is reported as 61.5%; in test [2] (Trial 2, sample IL-15-Col2) it was 90.9%. Further, the “relative exponential growth rate” value is recorded as 107.5% in test [2] (Trial 1, sample IL-15-Col2); 97.2% in test [2] (Trial 2, sample BL-15); 90.5% in test [2] (Trial 2, sample IL-15-Col1); 101.6% in test [2] (Trial 2, sample IL-15-Col2); 90.6% in test [2] (Trial 2, sample SL-15). Besides, the cell proliferation values result in test [2] (Trial 1, sample SL-15, all concentrations (10-1000×MIC)) is listed as “over 5%”. Also, the “concentration at which average cell proliferation lower than 5% was reached” value in test [2] (Trial 2, Anc) was found to be 10 ×MIC; in test [2] (Trial 2, sample IL-00), 100 ×MIC; in test [2] (Trial 2, sample IL-15-Col2), 1000 ×MIC; in test [2] (Trial 2, sample PL-00), 100 ×MIC; in test [2] (Trial 2, sample PL-0.6) it was 100 ×MIC. Further, in test [2] (samples IL-15-Col1, IL-15-Col2, SL-15 and BL-15, both trials), the “growth (OD600 curves) in ciprofloxacin” value is recorded as “had OD600 curves in ciprofloxacin up to 100×MIC”. Moreover, the “growth in 100 or 1,000×MIC” value in test [2] (samples PL-00, PL-0.6 and IL-00, overall, both trials) was “could not grow”.

On to `[Cl-].[Na+]` [NaCl, sodium chloride], for which the “decrease of exponential growth rate from 60 to 75 ppt NaCl” value in test [3] (sample Ancestor) worked out at 22.9%; in test [3] (sample PL), 35.0%; in test [3] (sample SLearly) it was 28.9%; in test [3] (sample SLfinal) it was 7.8%. In addition, the relative growth rate in test [3] (sample Ancestor, 75 ppt NaCl) was found to be 15.5%; in test [3] (sample BL, 60 ppt NaCl), 32.5%; in test [3] (sample BL, 75 ppt NaCl), 40.2%; in test [3] (sample BL, 90 ppt NaCl) it was 42.8%; in test [3] (sample PL, 75 ppt NaCl), 18.3%; in test [3] (sample PL, 90 ppt NaCl), 25.9%. The relative growth rate in test [3] (sample SLearly, 75 ppt NaCl) was determined as 3.1%; in test [3] (sample SLfinal, 75 ppt NaCl), 19.7%; in test [3] (sample SLfinal, 90 ppt NaCl), 27.0%. Further, the average cell proliferation result in test [3] (sample Ancestor, 90 ppt NaCl (no growth)) is listed as “less than 5%”; in test [3] (sample SLearly, 75 and 90 ppt NaCl (no growth)), “less than 5%”; in test [3] (three samples taken at the end of the run (PL, SLfinal, BL), every level of salinity (5-90 ppt NaCl)) it was “over 5%”. Besides, in test [3] (sample BL), the “increase of exponential growth rate from 60 to 75 ppt NaCl” value worked out at 7.7%.
